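Results reflect a 48-hour exposure of cells in 96-well plates to compound at five concentrations. The concentration for 50% growth inhibition is given as GI50. TGI is the concentration that stops growth completely.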

Some test systems named below: SK-OV-3 ovarian; A549 NSCLC; CCRF-CEM leukemia; IGROV1 ovarian; HT29 colon; LOX IMVI melanoma; SF-295 CNS; MALME-3M melanoma; MDA-MB-231 breast; SNB-19 CNS.
Holding throughout (assay): NCI-60 cell line screen, 48 h

On to `CC1=C(C(=O)Nc2ccc(Cl)c(Cl)c2)C(c2cccc(Cl)c2)NC(=S)N1` (stereo unspecified), for which the GI50 in the experiment on SK-OV-3 ovarian was 15.2 µM; in the experiment on A549 NSCLC, 11.2 µM; with CCRF-CEM leukemia it was 30.5 µM; in the experiment on IGROV1 ovarian it was 8.83 µM; in the experiment on HT29 colon it was 16.1 µM; in the experiment on LOX IMVI melanoma, 12.8 µM. In addition, the GI50 with SF-295 CNS is 17.4 µM; in the experiment with MALME-3M melanoma it was 10.9 µM; in the experiment with MDA-MB-231 breast, 8.15 µM; with SNB-19 CNS, 10.5 µM. The TGI was 33 µM in the experiment with SK-OV-3 ovarian; 48.3 µM in the experiment with A549 NSCLC; above 50 µM with CCRF-CEM leukemia; 35 µM in the experiment on IGROV1 ovarian; above 50 µM with HT29 colon; above 50 µM in the experiment on LOX IMVI melanoma. In addition, the TGI in the experiment with SF-295 CNS was above 50 µM; in the experiment with MALME-3M melanoma, 29.8 µM; in the experiment with MDA-MB-231 breast it was 19.3 µM; in the experiment with SNB-19 CNS, 24.9 µM.

`C(=N\Nc1ccc2ccccc2n1)/c1ccccn1`: the GI50 was 0.537 µM in the experiment on SK-OV-3 ovarian; 0.563 µM in the experiment with A549 NSCLC; 0.371 µM in the experiment with CCRF-CEM leukemia; 0.388 µM in the experiment with IGROV1 ovarian; 0.536 µM in the experiment with HT29 colon; 0.422 µM in the experiment on LOX IMVI melanoma. The GI50 in the experiment with SF-295 CNS is 0.348 µM; in the experiment with MALME-3M melanoma it was 1.35 µM; in the experiment with MDA-MB-231 breast, 0.695 µM; with SNB-19 CNS, 0.921 µM. In addition, the TGI in the experiment with SK-OV-3 ovarian is above 40.5 µM; in the experiment on A549 NSCLC, above 100 µM; in the experiment on CCRF-CEM leukemia it was above 100 µM; in the experiment with IGROV1 ovarian, 8.66 µM; in the experiment with HT29 colon it was above 40.6 µM; in the experiment on LOX IMVI melanoma it was 13.8 µM. The TGI was 12.9 µM in the experiment with SF-295 CNS, 8.34 µM in the experiment with MALME-3M melanoma, above 100 µM in the experiment on MDA-MB-231 breast and above 100 µM in the experiment with SNB-19 CNS.

`CC(=O)c1c(C)c2cnc(Nc3ccc(N4CCNCC4)cn3)nc2n(C2CCCC2)c1=O`: the GI50 is 9.73 µM with SK-OV-3 ovarian; 3.69 µM with A549 NSCLC; 0.707 µM in the experiment with CCRF-CEM leukemia; 7.35 µM with IGROV1 ovarian; 0.969 µM in the experiment on HT29 colon; 1.46 µM in the experiment with LOX IMVI melanoma. The GI50 in the experiment with SF-295 CNS is 12.9 µM; with MALME-3M melanoma, 8.25 µM; in the experiment on MDA-MB-231 breast, 9.84 µM; in the experiment with SNB-19 CNS, 11.7 µM. The TGI in the experiment on SK-OV-3 ovarian was 22.1 µM; with A549 NSCLC, 19.2 µM; in the experiment on CCRF-CEM leukemia it was above 50.6 µM; in the experiment with IGROV1 ovarian, 25 µM; in the experiment with HT29 colon, 16.8 µM; in the experiment on LOX IMVI melanoma, 19.7 µM. Further, the TGI with SF-295 CNS turned out to be 28.9 µM; with MALME-3M melanoma it was 24.4 µM; with MDA-MB-231 breast, 24.9 µM; in the experiment with SNB-19 CNS it was 25.4 µM.

Take `O=C(CI)Nc1ccc(Br)cc1`: the GI50 in the experiment on SK-OV-3 ovarian is 1.99 µM; in the experiment on A549 NSCLC it was 5.89 µM; in the experiment with CCRF-CEM leukemia it was 1.75 µM; with IGROV1 ovarian, 2.35 µM; in the experiment on HT29 colon, 2.43 µM; in the experiment with LOX IMVI melanoma it was 0.326 µM. Moreover, the GI50 in the experiment on SF-295 CNS is 11.2 µM; in the experiment on MALME-3M melanoma, 2.1 µM; in the experiment on MDA-MB-231 breast, 2.6 µM; with SNB-19 CNS it was 15.1 µM. Moreover, the TGI was 3.99 µM with SK-OV-3 ovarian; 29.3 µM in the experiment on A549 NSCLC; above 100 µM in the experiment with CCRF-CEM leukemia; 4.88 µM in the experiment on IGROV1 ovarian; 5.28 µM with HT29 colon; 1.46 µM in the experiment on LOX IMVI melanoma. The TGI stood at 30.7 µM in the experiment on SF-295 CNS, 4.29 µM with MALME-3M melanoma, 5.51 µM in the experiment on MDA-MB-231 breast and 33.5 µM in the experiment on SNB-19 CNS.

In the case of `COc1ccc2c(c1)/C(=N/OC(C)=O)c1c-2c(OC)nc2ccccc12`, the GI50 in the experiment on SK-OV-3 ovarian is 48.1 µM; in the experiment on A549 NSCLC, above 100 µM; with CCRF-CEM leukemia, above 100 µM; in the experiment on HT29 colon, above 100 µM; in the experiment with LOX IMVI melanoma it was above 100 µM; in the experiment on SF-295 CNS, above 100 µM. Moreover, the figures for the GI50 in the experiment on MALME-3M melanoma, in the experiment with MDA-MB-231 breast and in the experiment with SNB-19 CNS were 57.3 µM, 35 µM and above 100 µM, respectively. Besides, the TGI in the experiment with SK-OV-3 ovarian, in the experiment with A549 NSCLC, in the experiment on CCRF-CEM leukemia, with HT29 colon, in the experiment with LOX IMVI melanoma and in the experiment with SF-295 CNS was above 100 µM in each case. The TGI in the experiment on MALME-3M melanoma, in the experiment on MDA-MB-231 breast and in the experiment on SNB-19 CNS was above 100 µM in each case.

For `COc1cnccc1Nc1nc(-c2nn(Cc3c(F)cc(OCCO)cc3F)c3ccccc23)ncc1OC`, the GI50 in the experiment with SK-OV-3 ovarian is 19.4 µM; in the experiment with A549 NSCLC it was 2.93 µM; in the experiment with CCRF-CEM leukemia, 0.946 µM; with IGROV1 ovarian it was 2.89 µM; in the experiment on HT29 colon it was 2.87 µM; in the experiment with LOX IMVI melanoma, 1.84 µM. For the same molecule, the GI50 was 7.26 µM in the experiment with SF-295 CNS, 2.16 µM in the experiment on MALME-3M melanoma, 1.53 µM with MDA-MB-231 breast and 2.23 µM with SNB-19 CNS. Moreover, the TGI in the experiment with SK-OV-3 ovarian is 48 µM; with A549 NSCLC, 10.3 µM; in the experiment with CCRF-CEM leukemia it was above 100 µM; in the experiment with IGROV1 ovarian it was 16.4 µM; in the experiment with HT29 colon, 16.4 µM; in the experiment with LOX IMVI melanoma, 19.3 µM. In addition, the TGI with SF-295 CNS was 24.9 µM; in the experiment on MALME-3M melanoma it was 5.88 µM; in the experiment on MDA-MB-231 breast it was 4.96 µM; in the experiment with SNB-19 CNS, 10.5 µM.

As to `FC(F)(F)c1cccc(-c2[nH]ncc2-c2nnnn2-c2ccccc2)c1`, the GI50 is 6.05 µM with SK-OV-3 ovarian; 4.54 µM with A549 NSCLC; 5.3 µM in the experiment with CCRF-CEM leukemia; 3.96 µM with IGROV1 ovarian; 2.99 µM with HT29 colon; 6.41 µM in the experiment with LOX IMVI melanoma. In addition, the values for the GI50 in the experiment on SF-295 CNS, in the experiment with MALME-3M melanoma and in the experiment on MDA-MB-231 breast were 2.49 µM, 3.66 µM and 3.2 µM, respectively. The TGI was found to be 21.9 µM in the experiment on SK-OV-3 ovarian; 84.9 µM with A549 NSCLC; 22.9 µM in the experiment on CCRF-CEM leukemia; 15.4 µM in the experiment on IGROV1 ovarian; 9.33 µM in the experiment with HT29 colon; 19.5 µM with LOX IMVI melanoma. The TGI in the experiment on SF-295 CNS turned out to be 9.04 µM; in the experiment on MALME-3M melanoma it was 13.3 µM; in the experiment on MDA-MB-231 breast it was 12.7 µM.

Consider `Oc1[nH]c2ccccc2c1C=Nc1ccc(-n2cncn2)cc1`, for which the GI50 was above 15.7 µM in the experiment with SK-OV-3 ovarian; above 18.5 µM in the experiment with A549 NSCLC; 3.06 µM in the experiment with CCRF-CEM leukemia; above 25 µM in the experiment on IGROV1 ovarian; above 23.1 µM with HT29 colon; above 19.2 µM with LOX IMVI melanoma. Besides, the GI50 in the experiment with SF-295 CNS was above 25 µM; with MALME-3M melanoma, above 16 µM; in the experiment on MDA-MB-231 breast, above 25 µM; in the experiment with SNB-19 CNS it was above 25 µM. The TGI in the experiment with SK-OV-3 ovarian, with A549 NSCLC, in the experiment on CCRF-CEM leukemia, in the experiment with IGROV1 ovarian, in the experiment with HT29 colon and in the experiment on LOX IMVI melanoma was above 25 µM throughout. The TGI in the experiment with SF-295 CNS, in the experiment on MALME-3M melanoma, in the experiment with MDA-MB-231 breast and with SNB-19 CNS was above 25 µM in each case.

For the origin of these results see PubChem BioAssay (NCI).
